Measurements taken from ChEMBL document CHEMBL2401622, “Synthesis and in vitro evaluation of [18F]BMS-754807: a potential PET ligand for IGF-1R” (Bioorg Med Chem Lett, 2013).

What was measured:
Conditions in all cases: 0.0001 µM; call rule not given here
[1] = Drug uptake in human grade 4 glioblastoma at 0.1 nM after 1 hr by phosphor imager autoradiography; type: ADME
[2] = Drug uptake in human breast tumor at 0.1 nM after 1 hr by phosphor imager autoradiography; type: ADME, tissue-based
[3] = Drug uptake in human pancreatic tumor at 0.1 nM after 1 hr by phosphor imager autoradiography; type: ADME

Drug uptake [1]: Active | Drug uptake [2]: Active | Drug uptake [3]: Active
Structure (SMILES): C[C@@]1(C(=O)Nc2ccc([18F])nc2)CCCN1c1nc(Nc2cc(C3CC3)[nH]n2)c2cccn2n1
